Columns and labels:
[1] = target: T1, Alpha-1A adrenergic receptor (Homo sapiens, UniProt P35348); experiment: The compound was tested for binding affinity on [3H]- prazosin as specific ligand on Human cloned alpha-1A adrenergic receptor expressed in CHO cells; format: cell-based
T1 sequence (P35348 whole entry): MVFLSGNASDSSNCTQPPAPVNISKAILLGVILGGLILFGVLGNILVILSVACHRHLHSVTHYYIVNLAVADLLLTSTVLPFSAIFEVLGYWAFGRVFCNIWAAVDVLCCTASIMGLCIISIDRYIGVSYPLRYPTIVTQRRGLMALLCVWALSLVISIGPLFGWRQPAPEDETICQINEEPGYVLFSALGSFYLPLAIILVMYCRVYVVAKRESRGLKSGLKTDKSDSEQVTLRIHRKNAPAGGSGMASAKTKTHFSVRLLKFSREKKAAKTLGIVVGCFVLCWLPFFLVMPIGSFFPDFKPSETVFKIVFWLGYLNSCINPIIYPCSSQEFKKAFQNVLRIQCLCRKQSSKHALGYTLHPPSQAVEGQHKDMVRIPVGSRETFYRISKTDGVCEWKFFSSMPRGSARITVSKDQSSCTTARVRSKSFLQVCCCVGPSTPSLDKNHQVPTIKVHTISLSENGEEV

[2] = target: T2, 5-hydroxytryptamine receptor 1A (Rattus norvegicus, UniProt P19327); experiment: The compound was tested for binding affinity on [3H]8-OH-DPAT as specific ligand on 5-hydroxytryptamine 1A receptor in rat hippocampus; format: tissue-based
T2 sequence (P19327 whole entry): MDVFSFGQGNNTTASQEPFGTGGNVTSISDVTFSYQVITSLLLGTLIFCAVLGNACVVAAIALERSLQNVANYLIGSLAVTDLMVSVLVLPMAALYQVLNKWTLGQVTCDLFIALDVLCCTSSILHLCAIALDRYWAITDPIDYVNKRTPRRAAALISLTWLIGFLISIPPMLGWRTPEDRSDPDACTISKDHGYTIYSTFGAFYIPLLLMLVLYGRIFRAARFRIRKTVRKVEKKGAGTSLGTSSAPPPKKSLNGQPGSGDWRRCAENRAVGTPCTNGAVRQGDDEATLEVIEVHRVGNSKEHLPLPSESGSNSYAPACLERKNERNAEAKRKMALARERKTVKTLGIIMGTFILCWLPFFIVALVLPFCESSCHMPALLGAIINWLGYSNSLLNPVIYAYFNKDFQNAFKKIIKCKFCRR

[3] = Ratio of the binding affinities against 5-HT1A and alpha-1-adrenoceptor from rat brain membranes.; format: cell membranes; conditions: Membrane
[4] = target: T3, Adrenergic receptor alpha-1 (Rattus norvegicus, UniProt P15823+P23944+P43140); experiment: The compound was tested for binding affinity on [3H]- prazosin as specific ligand on alpha-1 adrenergic receptor cells in rat cerebral cortex; format: tissue-based
T3 sequence (P15823 whole entry): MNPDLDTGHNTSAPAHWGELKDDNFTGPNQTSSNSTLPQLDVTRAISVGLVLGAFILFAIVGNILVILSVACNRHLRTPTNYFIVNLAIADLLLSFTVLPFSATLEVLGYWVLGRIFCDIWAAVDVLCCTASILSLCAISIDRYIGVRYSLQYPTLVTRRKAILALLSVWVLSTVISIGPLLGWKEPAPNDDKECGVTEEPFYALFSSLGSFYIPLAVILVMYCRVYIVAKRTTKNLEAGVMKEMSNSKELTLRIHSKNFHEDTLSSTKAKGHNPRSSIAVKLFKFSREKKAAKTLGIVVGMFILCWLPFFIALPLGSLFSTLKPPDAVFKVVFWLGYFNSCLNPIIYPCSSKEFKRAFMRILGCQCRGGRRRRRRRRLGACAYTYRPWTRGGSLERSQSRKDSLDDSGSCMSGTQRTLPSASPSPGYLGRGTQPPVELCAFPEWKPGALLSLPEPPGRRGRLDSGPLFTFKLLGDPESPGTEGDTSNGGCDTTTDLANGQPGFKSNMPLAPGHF
T3 sequence (P23944 whole entry): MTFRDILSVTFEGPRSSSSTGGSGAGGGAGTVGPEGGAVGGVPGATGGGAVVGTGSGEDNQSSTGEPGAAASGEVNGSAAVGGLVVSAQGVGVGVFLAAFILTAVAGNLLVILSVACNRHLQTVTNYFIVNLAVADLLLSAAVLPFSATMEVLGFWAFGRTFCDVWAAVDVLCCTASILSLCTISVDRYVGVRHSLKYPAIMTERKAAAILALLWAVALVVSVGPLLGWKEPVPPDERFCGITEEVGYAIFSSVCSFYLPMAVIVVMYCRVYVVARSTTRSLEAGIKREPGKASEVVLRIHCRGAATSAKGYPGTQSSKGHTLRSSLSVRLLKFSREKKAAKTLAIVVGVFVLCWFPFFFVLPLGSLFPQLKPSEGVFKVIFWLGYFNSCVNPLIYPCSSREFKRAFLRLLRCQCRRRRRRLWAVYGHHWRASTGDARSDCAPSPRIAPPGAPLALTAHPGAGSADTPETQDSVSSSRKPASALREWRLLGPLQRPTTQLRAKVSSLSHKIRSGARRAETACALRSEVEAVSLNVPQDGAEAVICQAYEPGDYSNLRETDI
T3 sequence (P43140 whole entry): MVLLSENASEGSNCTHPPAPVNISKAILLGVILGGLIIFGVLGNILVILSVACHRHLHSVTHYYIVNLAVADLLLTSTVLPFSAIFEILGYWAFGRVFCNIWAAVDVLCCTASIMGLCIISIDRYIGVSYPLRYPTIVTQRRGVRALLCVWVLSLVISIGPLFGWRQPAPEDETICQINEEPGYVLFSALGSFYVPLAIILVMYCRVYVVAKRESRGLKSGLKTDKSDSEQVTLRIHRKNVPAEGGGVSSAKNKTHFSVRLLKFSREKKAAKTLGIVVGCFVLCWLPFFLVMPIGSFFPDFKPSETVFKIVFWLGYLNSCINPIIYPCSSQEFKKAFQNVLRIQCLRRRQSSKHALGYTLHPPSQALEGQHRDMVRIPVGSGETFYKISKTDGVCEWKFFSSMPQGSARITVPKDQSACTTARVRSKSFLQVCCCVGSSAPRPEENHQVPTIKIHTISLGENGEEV

[5] = target: T4, Alpha-1D adrenergic receptor (Homo sapiens, UniProt P25100); experiment: The compound was tested for binding affinity on [3H]- prazosin as specific ligand on Human cloned alpha-1D adrenergic receptor in CHO cells; format: cell-based
T4 sequence (P25100 whole entry): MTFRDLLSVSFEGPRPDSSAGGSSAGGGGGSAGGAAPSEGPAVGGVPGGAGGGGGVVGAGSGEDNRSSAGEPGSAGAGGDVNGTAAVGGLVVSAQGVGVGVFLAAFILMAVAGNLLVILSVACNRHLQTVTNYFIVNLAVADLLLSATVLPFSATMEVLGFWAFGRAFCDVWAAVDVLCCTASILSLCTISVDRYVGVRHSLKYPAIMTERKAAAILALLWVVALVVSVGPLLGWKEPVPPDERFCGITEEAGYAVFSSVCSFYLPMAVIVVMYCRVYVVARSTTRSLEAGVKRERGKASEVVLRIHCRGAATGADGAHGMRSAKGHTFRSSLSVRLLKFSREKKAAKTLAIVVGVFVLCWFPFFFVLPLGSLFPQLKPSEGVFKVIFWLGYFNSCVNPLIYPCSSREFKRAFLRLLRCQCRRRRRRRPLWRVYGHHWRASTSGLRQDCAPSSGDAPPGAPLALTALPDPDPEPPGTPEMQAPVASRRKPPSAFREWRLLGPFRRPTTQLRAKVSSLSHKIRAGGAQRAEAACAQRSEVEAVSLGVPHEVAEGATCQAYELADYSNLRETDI

[6] = target: T5, Alpha-1B adrenergic receptor (Homo sapiens, UniProt P35368); experiment: The compound was tested for binding affinity on [3H]- prazosin as specific ligand on Human cloned alpha-1B adrenergic receptor in CHO cells; format: cell-based
T5 sequence (P35368 whole entry): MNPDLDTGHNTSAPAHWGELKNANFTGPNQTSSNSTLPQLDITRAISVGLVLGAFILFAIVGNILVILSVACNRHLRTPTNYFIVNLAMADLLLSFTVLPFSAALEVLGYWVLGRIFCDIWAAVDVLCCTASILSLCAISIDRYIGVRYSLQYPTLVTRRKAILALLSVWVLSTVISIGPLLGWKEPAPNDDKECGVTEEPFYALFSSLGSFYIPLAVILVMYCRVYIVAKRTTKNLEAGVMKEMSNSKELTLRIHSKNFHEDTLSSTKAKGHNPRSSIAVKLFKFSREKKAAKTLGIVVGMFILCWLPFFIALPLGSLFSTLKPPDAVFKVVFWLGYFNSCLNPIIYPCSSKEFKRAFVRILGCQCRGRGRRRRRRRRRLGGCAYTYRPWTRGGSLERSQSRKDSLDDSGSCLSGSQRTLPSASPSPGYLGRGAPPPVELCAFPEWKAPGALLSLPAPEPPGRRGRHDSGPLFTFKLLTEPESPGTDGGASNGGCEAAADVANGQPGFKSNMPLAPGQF

| Ki [1] [nM] | Ki [2] [nM] | Ratio [3] | Ki [4] [nM] | Ki [5] [nM] | Ki [6] [nM] | SMILES |
| --- | --- | --- | --- | --- | --- | --- |
| 1.1 | 16.3 | 0.22 | 73.3 | 3.04 | 15.2 | COc1ccccc1N1CCN(CCNc2ccc3c4c(=O)n(C)nc(Cl)c4cn3n2)CC1 |
| 4.75 | 123 | 5.01 | 24.6 | 0.93 | 22.1 | COc1ccccc1N1CCN(CCn2nc(-c3ccccc3)c(C(C)=O)c(N)c2=O)CC1 |
| 5.93 | 56.5 | 1.03 | 54.6 | 11.9 | 13.6 | Cn1nc(Cl)c2cn3nc(NCCN4CCN(c5ccccc5Cl)CC4)ccc3c2c1=O |
| 1.93 | 21.2 | 0.16 | 129.2 | 6.56 | 15.6 | Cn1nc(Cl)c2cn3nc(NCCN4CCN(c5ccccc5)CC4)ccc3c2c1=O |
